This assay deals with HT29 human colorectal adenocarcinoma cell line. The assay is described as follows: cell proliferation assay (Cell Titer-Glo luminescent cell viability assay). Conditions: read-out: pIC50 (converted). It counts as cell-based. The procedure: The cell culture and proliferation assay may be carried out as follows: the HT29 human colorectal adenocarcinoma cell line (ATCC, USA) was maintained in Dulbecco's Modified Eagle's Medium (Invitrogen, USA) supplemented with 10% fetal bovine serum (JRH, USA). The cell proliferation assay was carried out with the Cell Titer-Glo luminescent cell viability assay (Promega, USA) according to the manufacture's instruction after the 72 hr treatment of the cells in the presence of the compounds. The cell viability was shown as a percentage of DMSO treated cells.
For orientation: Cellular ATP, detected with luciferase, serves as a proxy for viable cell number.

The mark [1] stands for this setting: HT-29, cell proliferative assay, HT29 cells, 72 hr treatment, values given as ranges.

Structures are written as SMILES. Read-outs that look alike come from different tables or passages of the source.

Take `COc1cc(C(=O)N[C@H]2CCCNC2)ccc1Nc1ncc2c(n1)N(C1CCCC1)CCC(=O)N2C` [Compound 50, (S)-4-(9-cyclopentyl-5-methyl-6-oxo-6,7,8,9-tetrahydro-5H-pyrimido[4,5-b][1,4]diazepin-2-ylamino)-3-methoxy-N-(piperidin-3-yl)benzamide]: under setting [1], the IC50 was over 10 nM. Take `COc1cc(C(N)=O)ccc1Nc1ncc2c(n1)N(C1CCCC1)CC(C)(C)C(=O)N2C` [Compound 107, 4-(9-cyclopentyl-5,7,7-trimethyl-6-oxo-6,7,8,9-tetrahydro-5H-pyrimido[4,5-b][1,4]diazepin-2-ylamino)-3-methoxybenzamide]: the IC50 under setting [1] was 3.16 to 10 nM. On the same count and under the same terms, the result for `CCN1CCC(NC(=O)c2ccc(Nc3ncc4c(n3)N(C3CCCCC3)CC(C)(C)C(=O)N4C)c(OC)c2)CC1` [Compound 113, 4-(9-cyclohexyl-5,7,7-trimethyl-6-oxo-6,7,8,9-tetrahydro-5H-pyrimido[4,5-b][1,4]diazepin-2-ylamino)-N-(1-ethylpiperidin-4-yl)-3-methoxybenzamide] reads under 1 nM; that for `CC[C@@]1(C)CN(C2CCCC2)c2nc(Nc3ccc(C(=O)NC4CN(C)C4)cc3OC)ncc2N(C)C1=O` [Compound 132, (S)-4-(9-cyclopentyl-7-ethyl-5,7-dimethyl-6-oxo-6,7,8,9-tetrahydro-5H-pyrimido[4,5-b][1,4]diazepin-2-ylamino)-3-methoxy-N-(1-methylazetidin-3-yl)benzamide], 3.16 to 10 nM; that for `CC[C@H]1CN(C2CCCC2)c2nc(Nc3ccc(C(=O)NC4CCN(C)CC4)cc3OC)ncc2N(C)C1=O` [Compound 36, (S)-4-(9-Cyclopentyl-7-ethyl-5-methyl-6-oxo-6,7,8,9-tetrahydro-5H-pyrimido[4,5-b][1,4]diazepin-2-ylamino)-3-methoxy-N-(1-methyl-piperidin-4-yl)-benzamide], 3.16 to 10 nM. On the same count and under the same terms, the result for `CCC1(C)CN(C2CCCCC2)c2nc(Nc3ccc(C(=O)NC4CN(C)C4)cc3OC)ncc2N(C)C1=O` (stereo not shown) [Compound 140, 4-(9-cyclohexyl-7-ethyl-5,7-dimethyl-6-oxo-6,7,8,9-tetrahydro-5H-pyrimido[4,5-b][1,4]diazepin-2-ylamino)-3-methoxy-N-(1-methylazetidin-3-yl)benzamide] reads 3.16 to 10 nM.

Take `COc1cc(C(=O)N[C@@H]2CCCN(C)C2)ccc1Nc1ncc2c(n1)N(C1CCCC1)CCC(=O)N2C` [Compound 53, (R)-4-(9-cyclopentyl-5-methyl-6-oxo-6,7,8,9-tetrahydro-5H-pyrimido[4,5-b][1,4]diazepin-2-ylamino)-3-methoxy-N-(1-methylpiperidin-3-yl)benzamide]: the IC50 under setting [1] was over 10 nM.

`COc1cc(C(=O)NCCN2CCNCC2)ccc1Nc1ncc2c(n1)N(C1CCCC1)CCC(=O)N2C` [Compound 55, 4-(9-cyclopentyl-5-methyl-6-oxo-6,7,8,9-tetrahydro-5H-pyrimido[4,5-b][1,4]diazepin-2-ylamino)-3-methoxy-N-(2-(piperazin-1-yl)ethyl)benzamide]: the IC50 under setting [1] is over 10 nM. `COc1cc(C(=O)NC2CCNCC2)ccc1Nc1ncc2c(n1)N(C1CCCCC1)CC(C)(C)C(=O)N2C` [Compound 116, 4-(9-cyclohexyl-5,7,7-trimethyl-6-oxo-6,7,8,9-tetrahydro-5H-pyrimido[4,5-b][1,4]diazepin-2-ylamino)-3-methoxy-N-(piperidin-4-yl)benzamide]: the IC50 under setting [1] is 3.16 to 10 nM. In the case of `COc1cc(C(=O)N[C@@H]2CCCNC2)ccc1Nc1ncc2c(n1)N(C1CCCCC1)CC1(CC1)C(=O)N2C` [Compound 175, (R)-4-(9′-cyclohexyl-5′-methyl-6′-oxo-5′,6′,8′,9′-tetrahydrospiro [cyclopropane-1,7′-pyrimido[4,5-b][1,4]diazepine]-2′-ylamino)-3-methoxy-N-(piperidin-3-yl)benzamide], under setting [1], the IC50 is under 1 nM. Same read-out and setting: next, `CCCOc1cc(C(=O)NC2CCN(C)CC2)ccc1Nc1ncc2c(n1)N(C1CCCC1)CC(C)(C)C(=O)N2C` [Compound 124, 4-(9-cyclopentyl-5,7,7-trimethyl-6-oxo-6,7,8,9-tetrahydro-5H-pyrimido[4,5-b][1,4]diazepin-2-ylamino)-N-(1-methylpiperidin-4-yl)-3-propoxybenzamide]: over 10 nM; `C=CC1(C)CN(C2CCCC2)c2nc(Nc3ccc(C(=O)NN4CCN(C)CC4)cc3OC)ncc2N(C)C1=O` (stereo not shown) [Compound 242, 4-(9-cyclopentyl-5,7-dimethyl-6-oxo-7-vinyl-6,7,8,9-tetrahydro-5H-pyrimido[4,5-b][1,4]diazepin-2-ylamino)-3-methoxy-N-(4-methylpiperazin-1-yl)benzamide]: over 10 nM; `C=C[C@]1(C)CN(C2CCCC2)c2nc(Nc3ccc(C(=O)NC4CCN(C)CC4)cc3OC)ncc2N(C)C1=O` [Compound 240, (R)-4-(9-cyclopentyl-5,7-dimethyl-6-oxo-7-vinyl-6,7,8,9-tetrahydro-5H-pyrimido[4,5-b][1,4]diazepin-2-ylamino)-3-methoxy-N-(1-methylpiperidin-4-yl)benzamide]: 3.16 to 10 nM. As to `COc1cc(C(=O)NC2CCN(C(C)=O)CC2)ccc1Nc1ncc2c(n1)N(C1CCCC1)CCC(=O)N2C` [Compound 39, N-(1-acetylpiperidin-4-yl)-4-(9-cyclopentyl-5-methyl-6-oxo-6,7,8,9-tetrahydro-5H-pyrimido[4,5-b][1,4]diazepin-2-ylamino)-3-methoxybenzamide], the IC50 under setting [1] is 1 to 2.51 nM.

Take `COc1cc(C(=O)NC2CCOCC2)ccc1Nc1ncc2c(n1)N(C1CCCC1)CCC(=O)N2C` [Compound 42, 4-(9-cyclopentyl-5-methyl-6-oxo-6,7,8,9-tetrahydro-5H-pyrimido[4,5-b][1,4]diazepin-2-ylamino)-3-methoxy-N-(tetrahydro-2H-pyran-4-yl)benzamide]: the IC50 under setting [1] was 3.16 to 10 nM. Take `COc1cc(C(=O)NN2CCN(C)CC2)ccc1Nc1ncc2c(n1)N(C1CCCCC1)CC1(CC1)C(=O)N2C` [Compound 170, 4-(9′-cyclohexyl-5′-methyl-6′-oxo-5′,6′,8′,9′-tetrahydrospiro[cyclopropane-1,7′-pyrimido[4,5-b][1,4]diazepine]-2′-ylamino)-3-methoxy-N-(4-methylpiperazin-1-yl)benzamide]: under setting [1], the IC50 is under 1 nM. On to `COc1cc(C(=O)NC2CCN(C)CC2)ccc1Nc1ncc2c(n1)N(C1CCCCC1)CC(C)(C)C(=O)N2C` [Compound 109, 4-(9-cyclohexyl-5,7,7-trimethyl-6-oxo-6,7,8,9-tetrahydro-5H-pyrimido[4,5-b][1,4]diazepin-2-ylamino)-3-methoxy-N-(1-methylpiperidin-4-yl)benzamide], for which the IC50 (HT-29, 72 h) is 1 to 2.51 nM.

For `COc1cc(C(=O)NCc2cccnc2)ccc1Nc1ncc2c(n1)N(C1CCCC1)CCC(=O)N2C` [Compound 70, 4-(9-cyclopentyl-5-methyl-6-oxo-6,7,8,9-tetrahydro-5H-pyrimido[4,5-b][1,4]diazepin-2-ylamino)-3-methoxy-N-(pyridin-3-ylmethyl)benzamide], the IC50 under setting [1] is 3.16 to 10 nM. Same read-out and setting: next, `COc1cc(C(=O)N[C@H]2CCNC2)ccc1Nc1ncc2c(n1)N(C1CCCC1)CCC(=O)N2C` [Compound 40, (S)-4-(9-cyclopentyl-5-methyl-6-oxo-6,7,8,9-tetrahydro-5H-pyrimido[4,5-b][1,4]diazepin-2-ylamino)-3-methoxy-N-(pyrrolidin-3yl)benzamide]: over 10 nM.

These data come from patent publication US20090291938A1 (TAKEDA PHARMACEUTICAL COMPANY LIMITED, priority 2007, published 2009).
